The values that follow come from patent US20250332162A1 (priority 2022, published 2025).

Data set [1] has as its system Flu virus strain A/Puerto Rico/8/1934 (PR8). Description: microbe, parasite or virus in culture. The note with it: unidentified influenza virus, PR8, MDCK, MDCK cells. It is filed as cell-based.
The nature of data set [2]: Solubility on dilution of 10 mM DMSO stocks. Type of data set: physicochemical. The note with it: 10 mM stocks in DMSO. Here is the method:
Antiviral compounds: Favipiravir, Mycophenolate, and Viramidine were prepared as 10 mM stocks in dimethyl sulfoxide (DMSO) and were soluble when diluted in various reaction mixtures and cell culture media. […] Also, combination of Favipiravir with each of the other drugs were tested.

Setting [3] is: 48 h, read-out: estimated IC50 when used alone, Example A, PR8 Flu virus 0.01 MOI, 48 hours.
The mark [4] stands for this setting: read-out: IC50, inhibition of influenza virus cytopathic activity, drug alone, FIG. 7 experiment, influenza m.o.i. 0.01, pre-treated 1 h, two days.
Setting [5] is: read-out: IC50, inhibition of influenza virus cytopathic activity, drug alone, FIG. 1 experiment, influenza A/PR8 m.o.i. 0.01, pre-treated 1 h, two days.

pIC50: −log10 of the molar value. Like-named read-outs stand apart in the source and are kept apart here.

One may read the pIC50 as −log10 of the IC50, conventionally taken in molar units. As to `N=C(N)c1ncn([C@@H]2O[C@H](CO)[C@@H](O)[C@H]2O)n1` [Viramidine, viramidine], the pIC50 in data set [1] (setting [3]) and in data set [1] (setting [4]) was 4.02 each time. In data set [2], the “solubility when diluted in reaction mixtures and cell culture media” value (“solubility when diluted” for short) is recorded as “soluble”.

Regarding `NC(=O)c1nc(F)c[nH]c1=O` [Favipiravir, favipiravir], the pIC50 in data set [1] (setting [3]) was 4.60; in data set [1] (setting [5]), 4.58; in data set [1] (setting [4]), 4.60. The “solubility when diluted” value in data set [2] is reported as “soluble”.

As for `COc1c(C)c2c(c(O)c1C/C=C(\C)CCC(=O)O)C(=O)OC2` [Mycophenolate], the pIC50 in data set [1] (setting [3]) and in data set [1] (setting [5]) was 5.85 in each case. Also, the “solubility when diluted” value in data set [2] is “soluble”.
